Test results from PubChem BioAssay (NCI).
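Following 48 hours of exposure in 96-well plates, responses at five concentrations were used to interpolate endpoints linearly. At the GI50, growth is halved. TGI: concentration producing complete growth inhibition.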

Tests used:
Assay in all cases: DTP human tumour cell line panel, 48 h
[1] = tested on: HCT-15 colon
[2] = tested on: CCRF-CEM leukemia
[3] = tested on: NCI-H226 lung
[4] = tested on: SN12C renal
[5] = tested on: SK-MEL-2 melanoma
[6] = tested on: OVCAR-4 ovarian
[7] = tested on: NCI-H460 lung
[8] = tested on: MCF7 breast
[9] = tested on: SW-620 colon
[10] = tested on: TK-10 renal
[11] = tested on: 786-0 renal
[12] = tested on: DU-145 prostate
[13] = tested on: HCC-2998 colon
[14] = tested on: SK-OV-3 ovarian
[15] = tested on: MDA-MB-435
[16] = tested on: SK-MEL-28 melanoma
[17] = tested on: SK-MEL-5 melanoma
[18] = tested on: NCI/ADR-RES ovarian
[19] = tested on: OVCAR-5 ovarian
[20] = tested on: HOP-62 NSCLC
[21] = tested on: RPMI-8226 leukemia
[22] = tested on: U251 CNS
[23] = tested on: HOP-92 NSCLC
[24] = tested on: MDA-MB-231 breast
[25] = tested on: LOX IMVI melanoma
[26] = tested on: ACHN renal
[27] = tested on: RXF 393 renal
[28] = tested on: MOLT-4 leukemia
[29] = tested on: NCI-H522 lung
[30] = tested on: OVCAR-8 ovarian
[31] = tested on: OVCAR-3 ovarian
[32] = tested on: SF-539 CNS
[33] = tested on: UO-31 renal
[34] = tested on: A549 NSCLC
[35] = tested on: SF-268 CNS
[36] = tested on: EKVX NSCLC
[37] = tested on: M14 melanoma
[38] = tested on: KM12 colon
[39] = tested on: HL-60(TB) leukemia
[40] = tested on: A498 renal
[41] = tested on: HCT-116 colon
[42] = tested on: IGROV1 ovarian
[43] = tested on: SR leukemia
[44] = tested on: SNB-19 CNS
[45] = tested on: SF-295 CNS
[46] = tested on: SNB-75 CNS
[47] = tested on: UACC-257 melanoma
[48] = tested on: HS 578T breast
[49] = tested on: CAKI-1 renal
[50] = tested on: K-562 leukemia
[51] = tested on: NCI-H23 lung
[52] = tested on: BT-549 breast
[53] = tested on: UACC-62 melanoma
[54] = tested on: PC-3 prostate
[55] = tested on: MALME-3M melanoma
[56] = tested on: COLO 205 colon
[57] = tested on: T-47D breast

## O=c1ncc(I)c[nH]1
[1]
  GI50: > 100 µM
  TGI: > 100 µM
[2]
  GI50: > 100 µM
  TGI: > 100 µM
[3]
  GI50: > 100 µM
  TGI: > 100 µM
[4]
  GI50: > 100 µM
  TGI: > 100 µM
[5]
  GI50: > 100 µM
  TGI: > 100 µM
[6]
  GI50: > 100 µM
  TGI: > 100 µM
[7]
  GI50: > 100 µM
  TGI: > 100 µM
[8]
  GI50: > 100 µM
  TGI: > 100 µM
[9]
  GI50: > 100 µM
  TGI: > 100 µM
[10]
  GI50: > 100 µM
  TGI: > 100 µM
[11]
  GI50: > 100 µM
  TGI: > 100 µM
[12]
  GI50: > 100 µM
  TGI: > 100 µM
[13]
  GI50: > 100 µM
  TGI: > 100 µM
[14]
  GI50: > 100 µM
  TGI: > 100 µM
[15]
  GI50: > 100 µM
  TGI: > 100 µM
[16]
  GI50: > 100 µM
  TGI: > 100 µM
[17]
  GI50: > 100 µM
  TGI: > 100 µM
[18]
  GI50: > 100 µM
  TGI: > 100 µM
[19]
  GI50: > 100 µM
  TGI: > 100 µM
[20]
  GI50: > 100 µM
  TGI: > 100 µM
[21]
  GI50: > 100 µM
  TGI: > 100 µM
[22]
  GI50: > 100 µM
  TGI: > 100 µM
[23]
  GI50: > 100 µM
  TGI: > 100 µM
[24]
  GI50: > 100 µM
  TGI: > 100 µM
[25]
  GI50: > 100 µM
  TGI: > 100 µM
[26]
  GI50: > 100 µM
  TGI: > 100 µM
[27]
  GI50: > 100 µM
  TGI: > 100 µM
[28]
  GI50: > 100 µM
  TGI: > 100 µM
[29]
  GI50: > 100 µM
  TGI: > 100 µM
[30]
  GI50: > 100 µM
  TGI: > 100 µM
[31]
  GI50: > 100 µM
  TGI: > 100 µM
[32]
  GI50: > 100 µM
  TGI: > 100 µM
[33]
  GI50: > 100 µM
  TGI: > 100 µM
[34]
  GI50: > 100 µM
  TGI: > 100 µM
[35]
  GI50: > 100 µM
  TGI: > 100 µM
[36]
  GI50: > 100 µM
  TGI: > 100 µM
[37]
  GI50: > 100 µM
  TGI: > 100 µM
[38]
  GI50: > 100 µM
  TGI: > 100 µM
[39]
  GI50: > 100 µM
  TGI: > 100 µM
[40]
  GI50: > 100 µM
  TGI: > 100 µM
[41]
  GI50: > 100 µM
  TGI: > 100 µM
[42]
  GI50: > 100 µM
  TGI: > 100 µM
[43]
  GI50: > 100 µM
  TGI: > 100 µM
[44]
  GI50: > 100 µM
  TGI: > 100 µM
[45]
  GI50: > 100 µM
  TGI: > 100 µM
[46]
  GI50: > 100 µM
  TGI: > 100 µM
[47]
  GI50: > 100 µM
  TGI: > 100 µM
[48]
  GI50: > 100 µM
  TGI: > 100 µM
[49]
  GI50: > 100 µM
  TGI: > 100 µM
[50]
  GI50: > 100 µM
  TGI: > 100 µM
[51]
  GI50: > 100 µM
  TGI: > 100 µM
[52]
  GI50: > 100 µM
  TGI: > 100 µM
[53]
  GI50: > 100 µM
  TGI: > 100 µM
[54]
  GI50: > 100 µM
  TGI: > 100 µM
[55]
  GI50: > 100 µM
  TGI: > 100 µM
[56]
  GI50: > 100 µM
  TGI: > 100 µM
[57]
  GI50: > 100 µM
  TGI: > 100 µM
